Reference: ChEMBL document CHEMBL2074083, “Functional characterization of SLCO1B1 (OATP-C) variants, SLCO1B1*5, SLCO1B1*15 and SLCO1B1*15+C1007G, by using transient expression systems of HeLa and HEK293 cells” (Pharmacogenet Genomics, 2005)

Assays:
Type in all cases: functional, cell-based
[1] = molecular target: T1, OATP1B1 (Homo sapiens, UniProt Q9Y6L6); assay: (§1) TP_TRANSPORTER: uptake in OATP1B1-expressing HEK293 cells; details: HEK293 cells that express OATP1B1
T1 sequence (Q9Y6L6 whole entry): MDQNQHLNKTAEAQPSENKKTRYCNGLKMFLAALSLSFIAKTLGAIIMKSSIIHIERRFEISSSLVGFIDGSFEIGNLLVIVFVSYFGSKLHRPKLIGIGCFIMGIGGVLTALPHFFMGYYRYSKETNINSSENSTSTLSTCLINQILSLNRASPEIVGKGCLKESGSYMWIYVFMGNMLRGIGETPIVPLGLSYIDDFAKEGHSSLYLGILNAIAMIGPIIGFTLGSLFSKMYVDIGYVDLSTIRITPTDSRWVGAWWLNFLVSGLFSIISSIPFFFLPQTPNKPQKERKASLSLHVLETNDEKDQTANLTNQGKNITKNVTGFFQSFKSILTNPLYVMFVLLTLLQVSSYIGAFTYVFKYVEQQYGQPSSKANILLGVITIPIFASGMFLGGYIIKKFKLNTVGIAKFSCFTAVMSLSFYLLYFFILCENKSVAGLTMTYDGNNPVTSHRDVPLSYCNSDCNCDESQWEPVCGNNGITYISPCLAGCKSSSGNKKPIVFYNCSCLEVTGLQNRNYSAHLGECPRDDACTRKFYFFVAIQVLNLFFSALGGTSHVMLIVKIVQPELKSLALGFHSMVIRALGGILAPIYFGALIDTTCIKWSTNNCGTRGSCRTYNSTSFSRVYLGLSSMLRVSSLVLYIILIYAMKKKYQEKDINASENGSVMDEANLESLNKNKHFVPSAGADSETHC

[2] = molecular target: T2, Solute carrier organic anion transporter family member 1B1 (Homo sapiens, UniProt Q9Y6L6); assay: as §1; details: hek293
T2 sequence (Q9Y6L6 whole entry): T1 sequence (Q9Y6L6 whole entry)

[3] = substrate: CC[C@H](C)C(=O)O[C@H]1C[C@H](O)C=C2C=C[C@H](C)[C@H](CC[C@@H](O)C[C@@H](O)CC(=O)O)[C@H]21; assay: as §1

CC(C)c1c(C(=O)Nc2ccccc2)c(-c2ccccc2)c(-c2ccc(F)cc2)n1CC[C@@H](O)C[C@@H](O)CC(=O)O [ATORVASTATIN]
Km [1]: 12.4 µM

COCc1c(C(C)C)nc(C(C)C)c(/C=C/[C@@H](O)C[C@@H](O)CC(=O)O)c1-c1ccc(F)cc1 [CERIVASTATIN]
Activity [2]: substrate [(+)]

B1: Solute carrier organic anion transporter family member 1B1 (Homo sapiens) (protein)
chain: T1 sequence (Q9Y6L6 whole entry)
Km [3]: 85.7 µM
